According to article PMC6858373 (Scientific Reports, 2019):
Where two headings read alike, the source gives them in different places.

Columns and labels:
[1] = target: T1, FGF14:Nav1.6 C-tail complex (Homo sapiens, UniProt Q92915+Q9UQD0); test: Split-luciferase complementation assay (LCA) in Clone V double stable HEK293 cells; assay type: cell-based; details: for Split Luciferase Assay % Lum Set 1 / Split Luciferase Assay Z-score Set 1: biological replicate Set 1; for Split Luciferase Assay % Lum Set 1 / Split Luciferase Assay %Lum Set 2: normalized to on-plate 0.3% DMSO controls (n=16 per plate); for Split Luciferase Assay %Lum Set 2 / Split Luciferase Assay Z-score Set 2: biological replicate Set 2; for Split Luciferase Assay Z-score Set 1 / Split Luciferase Assay Z-score Set 2: normalized to on-plate 0.3% DMSO controls; for Split Luciferase Assay %Lum Avg: average of Set 1 and Set 2, normalized to 0.3% DMSO controls; for signal-background (S:B) ratio: 50 ng/mL TNF-α vs 0.3% DMSO, n = 16
T1 construct: polymerase chain reaction (PCR) amplification of the FGF14 open reading frame (nt 1–855); C-terminal fragment of Nav1.6 (amino acids 1763–1976) fused with CD4ΔC-tail (amino acids 1–395); expressed in transfected cells

[2] = system: Clone V cells; test: CellTiter Blue (CTB) cell viability counter-screen; details: CC_NCI screening, normalized to on-plate 0.3% DMSO controls; for Toxicity Assay % Fluor: CTB cell viability fluorescence; for Toxicity Assay Z-score: CTB cell viability
[3] = target: full-length P. pyralis luciferase (Photinus pyralis, UniProt P08659, K549A/L550V/N119G/N50D/S548I); assay type: cell-based; details: for Luciferase Assay % Lum / Luciferase Assay Z-score / Luciferase Assay % Lum (full-length luciferase counter-screen) / Luciferase Assay Z-score (full-length luciferase counter-screen): CC_NCI screening, normalized to on-plate 0.3% DMSO controls; for Luciferase Assay % Lum: full-length luciferase counter-screen luminescence; for Luciferase Assay Z-score: full-length luciferase counter-screen
[4] = system: Clone V cells
[5] = CC_NCI screening, LCA luminescence

Sequence of full-length P. pyralis luciferase (P08659 whole entry N50D/N119G/S548I/K549A/L550V, looked up): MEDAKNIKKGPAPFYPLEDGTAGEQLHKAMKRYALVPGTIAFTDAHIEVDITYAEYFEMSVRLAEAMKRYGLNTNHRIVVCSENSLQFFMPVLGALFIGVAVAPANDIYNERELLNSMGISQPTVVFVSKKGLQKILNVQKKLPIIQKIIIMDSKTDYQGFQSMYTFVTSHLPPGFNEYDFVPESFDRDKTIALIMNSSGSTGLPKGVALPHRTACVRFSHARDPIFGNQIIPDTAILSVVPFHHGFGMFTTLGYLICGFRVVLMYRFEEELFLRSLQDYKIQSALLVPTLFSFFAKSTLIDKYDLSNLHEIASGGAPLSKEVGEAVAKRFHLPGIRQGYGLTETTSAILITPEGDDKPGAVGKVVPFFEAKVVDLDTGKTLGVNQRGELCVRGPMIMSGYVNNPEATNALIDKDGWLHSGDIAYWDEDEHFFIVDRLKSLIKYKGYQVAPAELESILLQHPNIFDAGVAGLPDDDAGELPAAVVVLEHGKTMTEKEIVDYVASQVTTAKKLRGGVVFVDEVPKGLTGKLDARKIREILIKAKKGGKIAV
T1 sequence (Q92915 1-252 isoform Q92915-2): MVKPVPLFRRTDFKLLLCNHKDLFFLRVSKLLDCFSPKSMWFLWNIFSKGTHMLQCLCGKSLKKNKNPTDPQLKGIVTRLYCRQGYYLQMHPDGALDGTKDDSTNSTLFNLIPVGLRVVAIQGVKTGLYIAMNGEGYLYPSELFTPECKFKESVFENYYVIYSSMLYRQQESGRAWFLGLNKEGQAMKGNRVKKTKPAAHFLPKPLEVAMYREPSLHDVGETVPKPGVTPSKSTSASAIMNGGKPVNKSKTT
T1 sequence (Q9UQD0 1763-1976 limits assumed): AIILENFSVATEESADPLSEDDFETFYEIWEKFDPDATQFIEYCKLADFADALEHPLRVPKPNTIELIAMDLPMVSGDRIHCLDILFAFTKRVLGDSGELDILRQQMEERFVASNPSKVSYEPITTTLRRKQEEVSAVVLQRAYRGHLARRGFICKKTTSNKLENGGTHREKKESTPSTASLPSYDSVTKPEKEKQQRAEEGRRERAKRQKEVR

Compound	Split Luciferase Assay % Lum Set 1 [1, 5] [%]	Split Luciferase Assay %Lum Set 2 [1, 5] [%]	Split Luciferase Assay Z-score Set 1 ([1]; CC_NCI screening, LCA)	Split Luciferase Assay Z-score Set 2 ([1]; CC_NCI screening, LCA)	Split Luciferase Assay %Lum Avg ([1]; CC_NCI screening) [%]	Toxicity Assay % Fluor [2] [%]	Toxicity Assay Z-score [2]	Luciferase Assay % Lum [3] [%]	Luciferase Assay Z-score [3]	also measured
Cc1ccc(F)c(NC(=O)Nc2ccc(-c3cccc4[nH]nc(N)c34)cc2)c1 [ABT-869]	14.46	21.85	-6.91	-6.36	18.15	87.41	-1.76	60.04	-5.12	–
C[C@]1(c2nc3c(C(N)=O)cccc3[nH]2)CCCN1 [ABT-888]	75.34	93.63	-1.99	-0.52	84.48	107.03	0.98	105.22	0.67	–
CN1CCN(CCOc2cc(OC3CCOCC3)c3c(Nc4c(Cl)ccc5c4OCO5)ncnc3c2)CC1 [AZD 0530]	36.20	60.34	-5.16	-3.23	48.27	89.05	-1.53	98.71	-0.17	–
O=C(c1cc(Cc2n[nH]c(=O)c3ccccc23)ccc1F)N1CCN(C(=O)C2CC2)CC1 [AZD 2281]	117.73	92.59	1.43	-0.60	105.16	93.24	-0.94	105.07	0.65	–
Cn1cnc2c(F)c(Nc3ccc(Br)cc3Cl)c(C(=O)NOCCO)cc21 [AZD 6244]	100.34	90.51	0.03	-0.77	95.42	108.13	1.14	96.05	-0.51	–
CN(C)C/C=C/C(=O)Nc1cc2c(Nc3ccc(F)c(Cl)c3)ncnc2cc1O[C@H]1CCOC1 [Afatinib]	72.08	61.38	-2.26	-3.14	66.73	82.04	-2.51	73.64	-3.38	–
CN(C)C/C=C/C(=O)Nc1cc2c(Nc3ccc(F)c(Cl)c3)ncnc2cc1O[C@H]1CCOC1 [BIBW2992]	70.99	94.67	-2.34	-0.43	82.83	100.79	0.11	76.41	-3.02	–
Cc1c(NC(=O)OC[C@@H]2COCCN2)cn2ncnc(Nc3ccc4c(cnn4Cc4cccc(F)c4)c3)c12 [BMS-599626]	38.37	50.98	-4.98	-3.99	44.68	101.94	0.27	83.05	-2.17	–
COc1cc(Nc2c(C#N)cnc3cc(OCCCN4CCN(C)CC4)c(OC)cc23)c(Cl)cc1Cl [BOSUTINIB]	–	94.67	0.73	-0.43	101.85	88.31	-1.63	108.17	1.05	–
C[C@@H](Oc1cc(-c2cnn(C3CCNCC3)c2)cnc1N)c1c(Cl)ccc(F)c1Cl [PF-2341066]	59.03	48.89	-3.31	-4.16	53.96	82.92	-2.39	–	–	–
CS(=O)(=O)c1ccc(C(=O)Nc2ccc(Cl)c(-c3ccccn3)c2)c(Cl)c1 [Vismodegib, reference compound]	175.35	147.72	6.09	3.88	161.54	–	–	90.92	-1.16	Toxicity Assay % Fluor ([4]; human, 16 h, 30 µM): 93.24%; Toxicity Assay Z-score ([4]; human, 16 h, 30 µM): -0.95; Z-score (LCA primary screening) ([1]; 30 µM, 384-well, average of primary screening (n = 2), vs on-plate 0.3% DMSO): 4.99; EMax (% Luminescence) ([1]; agonists, Clone V cells, 384-well, normalized to DMSO): 161.54 % Luminescence; EC50 ([1]; estimated, 8-point dose response 0.25-30 µM, n = 4 per concentration, library compounds, read-out: EC50): 1910 nM
COc1cc2c(Nc3ccc(NC(=O)c4ccccc4)cc3)ncnc2cc1OCCCN1CCOCC1 [ZM447439]	–	–	–	–	–	–	–	–	–	Toxicity Assay % Fluor (CTB cell viability fluorescence) [4]: 106.45%; Toxicity Assay Z-score (CTB cell viability) [4]: 0.90; Split Luciferase Assay Z-score Set 1 ([1]; CC_NCI screening): 1.70; Split Luciferase Assay % Lum Set 1 ([1]; CC_NCI screening): 120.99%; Split Luciferase Assay Z-score Set 2 ([1]; CC_NCI screening): -1.70; Split Luciferase Assay %Lum Set 2 ([1]; CC_NCI screening): 79.06%; Split Luciferase Assay %Lum Avg [1]: 100.03%; Luciferase Assay % Lum (full-length luciferase counter-screen) [3]: 98.24%; Luciferase Assay Z-score (full-length luciferase counter-screen) [3]: -0.23
FC(F)c1nc2ccccc2n1-c1nc(N2CCOCC2)nc(N2CCOCC2)n1 [ZSTK474]	95.99	74.90	-0.32	-2.04	85.45	–	–	86.44	-1.74	Toxicity Assay % Fluor ([4]; human, 16 h, 30 µM): 95.63%; Toxicity Assay Z-score ([4]; human, 16 h, 30 µM): -0.61
Bleomycin sulfate	125.34	143.56	2.05	3.54	134.45	–	–	94.27	-0.73	Toxicity Assay % Fluor [4]: 80.17%; Toxicity Assay Z-score [4]: -2.77
DNA-PK INHIBITOR V	–	–	–	–	–	–	–	–	–	Toxicity Assay % Fluor (CTB cell viability fluorescence) [4]: 115.08%; Toxicity Assay Z-score (CTB cell viability) [4]: 2.11; Split Luciferase Assay Z-score Set 1 ([1]; CC_NCI screening): -0.59; Split Luciferase Assay % Lum Set 1 ([1]; CC_NCI screening): 92.73%; Split Luciferase Assay Z-score Set 2 ([1]; CC_NCI screening): -0.01; Split Luciferase Assay %Lum Set 2 ([1]; CC_NCI screening): 99.87%; Split Luciferase Assay %Lum Avg [1]: 96.30%; Luciferase Assay % Lum (full-length luciferase counter-screen) [3]: 82.55%; Luciferase Assay Z-score (full-length luciferase counter-screen) [3]: -2.23
LE 135	44.90	74.90	-4.45	-2.04	59.90	–	–	97.72	-0.29	Toxicity Assay % Fluor [4]: 98.37%; Toxicity Assay Z-score [4]: -0.23
TNF-α	–	–	–	–	–	–	–	–	–	cell viability vs untreated cells (CTB fluorescence) [4]: no significant difference in cell viability; mean effect relative to that of triciribine [1]: over 2 fold; signal-background (S:B) ratio ([1]; 1 × 10^4 cells per 384-well): 2.05 ± 0.11 X background signal; signal-background (S:B) ratio ([1]; 2 × 10^4 cells per 384-well): 2.26 ± 0.18 X background signal; signal-background (S:B) ratio ([1]; 3 × 10^4 cells per 384-well): 2.60 ± 0.14 X background signal; signal-background (S:B) ratio ([1]; 4 × 10^4 cells per 384-well): 2.12 ± 0.16 X background signal; % luminescence (mean and SD, normalized to DMSO) ([1]; 50 ng/mL TNF-α, Clone V cells, 96-well plates): 210.8% ± 18.6%; % maximal luminescence, full-length luciferase (normalized mean and SD) ([3]; TNF-α 50 ng/mL, 96-well plates): 105.7% ± 2.5%
